Columns and labels:
JAK2 = JAK2 (Homo sapiens (Human), UniProt O60674); assay: Jak Biochemical HTRF Assay (JAK2); conditions: recombinant GST-tagged catalytic domain, [ATP] 8.5 μM
JAK3 = JAK3 (Homo sapiens (Human), UniProt P52333); assay: Jak Biochemical HTRF Assay (JAK3); conditions: recombinant GST-tagged catalytic domain, [ATP] 2.9 μM
JAK3, sequence (P52333 822-1111): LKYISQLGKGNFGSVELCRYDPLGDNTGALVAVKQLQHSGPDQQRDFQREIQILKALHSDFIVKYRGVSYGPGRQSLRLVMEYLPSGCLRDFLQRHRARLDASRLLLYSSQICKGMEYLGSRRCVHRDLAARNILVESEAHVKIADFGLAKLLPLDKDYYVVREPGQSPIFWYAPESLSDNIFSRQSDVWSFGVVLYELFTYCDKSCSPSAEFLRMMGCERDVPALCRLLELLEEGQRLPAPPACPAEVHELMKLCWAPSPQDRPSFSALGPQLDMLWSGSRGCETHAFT

JAK2, sequence (O60674 849-1124): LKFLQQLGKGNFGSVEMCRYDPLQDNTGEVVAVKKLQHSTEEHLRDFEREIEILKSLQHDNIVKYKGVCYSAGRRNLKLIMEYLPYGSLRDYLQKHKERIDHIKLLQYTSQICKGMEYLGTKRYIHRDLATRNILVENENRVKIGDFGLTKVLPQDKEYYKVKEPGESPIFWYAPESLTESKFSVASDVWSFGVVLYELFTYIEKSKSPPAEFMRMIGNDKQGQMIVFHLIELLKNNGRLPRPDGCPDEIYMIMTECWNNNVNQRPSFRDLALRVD

Structure (SMILES)	IC50 (JAK2; given as range class)	IC50 (JAK3; given as range class)	IC50 (JAK2)	IC50 (JAK3)
CCOC(=O)c1c[nH]c2ncnc(-c3cccc(NC(=O)/C=C/c4cccnc4)c3)c12 [Example 5-30, ethyl 4-(3-{[(2E)-3-pyridin-3-ylprop-2-enoyl]amino}phenyl)-7H-pyrrolo[2,3-d]pyrimidine-5-carboxylate]	> 500 nM	10 to 500 nM		
CCOC(=O)c1c[nH]c2ncnc(-c3cccc4ccsc34)c12 [Example 1-61, ethyl 4-(1-benzothiophen-7-yl)-7H-pyrrolo[2,3-d]pyrimidine-5-carboxylate]	> 500 nM	10 to 500 nM		
C=C(C)C(=O)N(C)c1cccc(-c2ncnc3[nH]cc(C4CCOCC4)c23)c1 [Example 24, N-Methyl-N-(3-(5-(tetrahydro-2H-pyran-4-yl)-7H-pyrrolo[2,3-d]pyrimidin-4-yl)phenyl)methacrylamide]	> 500 nM	> 500 nM		
CCOC(=O)c1c[nH]c2ncnc(-c3cccc(CN4CCOCC4)c3)c12 [Example 1-96, ethyl 4-[3-(morpholin-4-ylmethyl)phenyl]-7H-pyrrolo[2,3-d]pyrimidine-5-carboxylate]	> 500 nM	10 to 500 nM		
C=C(C)C(=O)Nc1cc(-c2ncnc3[nH]cc(C(=O)OCC)c23)cc(OC)n1 [Example 4-4, Ethyl 4-{2-methoxy-6-[(2-methylacryloyl)amino]pyridin-4-yl}-7H-pyrrolo[2,3-d]pyrimidine-5-carboxylate]			> 1500 nM	0.049 nM
CCOC(=O)c1c[nH]c2ncnc(-c3ccc(N4CCN(C)CC4)nc3)c12 [Example 1-87, ethyl 4-[6-(4-methylpiperazin-1-yl)pyridin-3-yl]-7H-pyrrolo[2,3-d]pyrimidine-5-carboxylate]	> 500 nM	10 to 500 nM		
CCOC(=O)c1c[nH]c2ncnc(-c3cccnc3)c12 [Example 1-28, ethyl 4-pyridin-3-yl-7H-pyrrolo[2,3-d]pyrimidine-5-carboxylate]	> 500 nM	10 to 500 nM		
CCOC(=O)c1c[nH]c2ncnc(-c3cccc(NC(=O)CC#N)c3)c12 [Example 5-4, ethyl 4-{3-[(cyanoacetyl)amino]phenyl}-7H-pyrrolo[2,3-d]pyrimidine-5-carboxylate]	10 to 500 nM	10 to 500 nM		
CC/C=C/C(=O)Nc1cccc(-c2ncnc3[nH]cc(C(=O)OCC)c23)c1 [Example 5-33, ethyl 4-{3-[(2E)-pent-2-enoylamino]phenyl}-7H-pyrrolo[2,3-d]pyrimidine-5-carboxylate]	> 500 nM	10 to 500 nM		
C/C=C(\C)C(=O)Nc1cccc(-c2ncnc3[nH]cc(C(=O)OCC)c23)c1 [Example 5-31, ethyl 4-(3-{[(2E)-2-methylbut-2-enoyl]aminol}phenyl)-7H-pyrrolo[2,3-d]pyrimidine-5-carboxylate]	> 500 nM	10 to 500 nM		
CCOC(=O)c1c[nH]c2ncnc(-c3ccc(C(=O)OC)cc3)c12 [Example 1-9, ethyl 4-[4-(methoxycarbonyl)phenyl]-7H-pyrrolo[2,3-d]pyrimidine-5-carboxylate]	> 500 nM	10 to 500 nM		
C=C(C)C(=O)Nc1cc(-c2ncnc3[nH]cc(C(=O)OCC)c23)ccc1CN(C)C [Example 4-30, ethyl 4-{4-[(dimethylamino)methyl]-3-[(2-methylacryloyl)amino]phenyl}-7H-pyrrolo[2,3-d]pyrimidine-5-carboxylate]			> 1500 nM	1.5 nM
CCOC(=O)c1c[nH]c2ncnc(-c3cccc(NC(=O)/C=C/c4c(C)nn(C)c4C)c3)c12 [Example 5-15, ethyl 4-(3-{[(2E)-3-(1,3,5-trimethyl-1H-pyrazol-4-yl)prop-2-enoyl]amino}phenyl)-7H-pyrrolo[2,3-d]pyrimidine-5-carboxylate]	> 500 nM	10 to 500 nM		
CCOC(=O)c1c[nH]c2ncnc(-c3ccnc(CO)c3)c12 [Example 1-60, ethyl 4-[2-(hydroxymethyl)pyridin-4-yl]-7H-pyrrolo[2,3-d]pyrimidine-5-carboxylate]	> 500 nM	10 to 500 nM		
CCOC(=O)c1c[nH]c2ncnc(-c3ccc4ncccc4c3)c12 [Example 1-49, ethyl 4-quinolin-6-yl-7H-pyrrolo[2,3-d]pyrimidine-5-carboxylate]	> 500 nM	10 to 500 nM		
CCOC(=O)c1c[nH]c2ncnc(-c3ccc(N4CCN(C)CC4)cc3)c12 [Example 1-85, ethyl 4-[4-(4-methylpiperazin-1-yl)phenyl]-7H-pyrrolo[2,3-d]pyrimidine-5-carboxylate]	> 500 nM	10 to 500 nM		
CCOC(=O)c1c[nH]c2ncnc(-c3ccc4scnc4c3)c12 [Example 1-82, ethyl 4-(1,3-benzothiazol-5-yl)-7H-pyrrolo[2,3-d]pyrimidine-5-carboxylate]	10 to 500 nM	10 to 500 nM		
C=C(C)C(=O)Nc1cncc(-c2ncnc3[nH]cc(C(=O)OCC)c23)c1 [Example 4-3, Ethyl 4-{5-[(2-methylacryloyl)amino]pyridin-3-yl}-7H-pyrrolo[2,3-d]pyrimidine-5-carboxylate]			> 1500 nM	0.085 nM
C=C(C)C(=O)Nc1cccc(-c2ncnc3[nH]cc(-c4cnco4)c23)c1 [Example 30, N-(3-(5-(Oxazol-5-yl)-7H-pyrrolo[2,3-d]pyrimidin-4-yl)phenyl)methacrylamide]			> 1500 nM	5 nM

Structure (SMILES)	IC50 (JAK2; given as range class)	IC50 (JAK3; given as range class)	IC50 (JAK2)	IC50 (JAK3)
CCOC(=O)c1c[nH]c2ncnc(-c3cccc(-c4nc(Br)ns4)c3)c12 [Example 7-3, ethyl 4-(3-(3-bromo-1,2,4-thiadiazol-5-yl)phenyl)-7H-pyrrolo[2,3-d]pyrimidine-5-carboxylate]	> 500 nM	10 to 500 nM		
CCOC(=O)c1c[nH]c2ncnc(-c3ccc(C#N)cc3)c12 [Example 1-10, ethyl 4-(4-cyanophenyl)-7H-pyrrolo[2,3-d]pyrimidine-5-carboxylate]	> 500 nM	10 to 500 nM		
CCOC(=O)c1c[nH]c2ncnc(-c3cccs3)c12 [Example 1-56, ethyl 4-thiophen-2-yl-7H-pyrrolo[2,3-d]pyrimidine-5-carboxylate]	10 to 500 nM	10 to 500 nM		
C=C(C)C(=O)Nc1cccc(-c2ncnc3[nH]cc(-c4cnc(C)s4)c23)c1 [Example 21-6, N-(3-(5-(2-methylthiazol-5-yl)-7H-pyrrolo[2,3-d]pyrimidin-4-yl)phenyl)methacrylamide]			> 1500 nM	10.3 nM
CCOC(=O)c1c[nH]c2ncnc(-c3ccc(N4CCS(=O)(=O)CC4)cc3)c12 [Example 1-97, ethyl 4-[4-(1,1-dioxidothiomorpholin-4-yl)phenyl]-7H-pyrrolo[2,3-d]pyrimidine-5-carboxylate]			348 nM	6.8 nM
C=C(C)C(=O)Nc1ccc(F)c(-c2ncnc3[nH]cc(C(=O)OCC)c23)c1 [Example 4-18, ethyl 4-{2-fluoro-5-[(2-methylacryloyl)amino]phenyl}-7H-pyrrolo[2,3-d]pyrimidine-5-carboxylate]			> 1500 nM	0.11 nM
C=C(C)C(=O)Nc1cc(-c2ncnc3[nH]cc(C(=O)OCC)c23)ccn1 [Example 4-35, ethyl 4-{2-[(2-methylacryloyl)amino]pyridin-4-yl}-7H-pyrrolo[2,3-d]pyrimidine-5-carboxylate]			> 1500 nM	0.049 nM
CCOC(=O)c1c[nH]c2ncnc(-c3cnc(OC)nc3)c12 [Example 1-91, ethyl 4-(2-methoxypyrimidin-5-yl)-7H-pyrrolo[2,3-d]pyrimidine-5-carboxylate]	> 500 nM	10 to 500 nM		
CCOC(=O)c1c[nH]c2ncnc(-c3cn[nH]c3)c12 [Example 1-51, ethyl 4-(1H-pyrazol-4-yl)-7H-pyrrolo[2,3-d]pyrimidine-5-carboxylate]	> 500 nM	10 to 500 nM		
C=C(F)C(=O)Nc1cccc(-c2ncnc3[nH]cc(C(=O)OCC)c23)c1 [Example 5-1, Ethyl 4-{3-[(2-fluoroacryloyl)amino]phenyl}-7H-pyrrolo[2,3-d]pyrimidine-5-carboxylate]			> 1500 nM	0.024 nM
C=C(C)C(=O)Nc1cccc(-c2ncnc3[nH]cc(-c4cccnc4)c23)c1 [Example 21-4, N-(3-(5-(pyridin-3-yl)-7H-pyrrolo[2,3-d]pyrimidin-4-yl)phenyl)methacrylamide]			> 1500 nM	9.7 nM
CCOC(=O)c1c[nH]c2ncnc(-c3ccc4c(c3)OCO4)c12 [Example 1-48, ethyl 4-(1,3-benzodioxol-5-yl)-7H-pyrrolo[2,3-d]pyrimidine-5-carboxylate]			66 nM	3.8 nM
CCOC(=O)c1c[nH]c2ncnc(-c3cccc(NC(=O)NCC#N)c3)c12 [Example 9-1, Ethyl 4-(3-(3-(cyanomethyl)ureido)phenyl)-7H-pyrrolo[2,3-d]pyrimidine-5-carboxylate]	> 500 nM	10 to 500 nM		
C=C(C)C(=O)Nc1cccc(-c2ncnc3[nH]cc(-c4ccccc4C)c23)c1 [Example 20-6, 2-methyl-N-{3-[5-(2-methylphenyl)-7H-pyrrolo[2,3-d]pyrimidin-4-yl]phenyll}prop-2-enamide]			> 1500 nM	5.2 nM
CCOC(=O)c1c[nH]c2ncnc(-c3ccc4c(c3)CNC4=O)c12 [Example 1-65, ethyl 4-(1-oxo-2,3-dihydro-1H-isoindol-5-yl)-7H-pyrrolo[2,3-d]pyrimidine-5-carboxylate]	10 to 500 nM	10 to 500 nM		
C=C(F)C(=O)Nc1cc(-c2ncnc3[nH]cc(C(=O)OCC)c23)ccc1F [Example 5-10, ethyl 4-{4-fluoro-3-[(2-fluoroacryloyl)amino]phenyl}-7H-pyrrolo[2,3-d]pyrimidine-5-carboxylate]			> 1500 nM	0.013 nM
CCOC(=O)c1c[nH]c2ncnc(C3=CCOCC3)c12 [Example 1-98, ethyl 4-(3,6-dihydro-2H-pyran-4-yl)-7H-pyrrolo[2,3-d]pyrimidine-5-carboxylate]	> 500 nM	10 to 500 nM		
CCOC(=O)c1c[nH]c2ncnc(-c3ccc4c(c3)NCC4)c12 [Example 1-31, ethyl 4-(2,3-dihydro-1H-indol-6-yl)-7H-pyrrolo[2,3-d]pyrimidine-5-carboxylate]			91 nM	4.6 nM

Reference: patent publication US8993756B2 (Merck Sharp & Dohme Corp., priority 2011, dated 2015)
